According to article doi:10.1101/2020.07.12.199869v2 (bioRxiv, 2020):

Tested on: PGP/syndapin-2
Experiment: Proximity ligation assay PGP/syndapin-2 in BECs
Type: cell-based, mouse
Details: polarised BECs, FAM-Aβ (1-40) 500 nM, 15 minutes; n = 60 images

5-Fluorescein-amyloid-β protein (Aβ 1-40) [FAM-Aβ (1-40)]
change in interaction of syndapin-2 with PGP (PLA dots): no significant difference
